Each compound was assayed against T1, GLP-1R (Homo sapiens, UniProt P43220) (assay: EC20 GLP-1(9-36) PAM cAMP assay: dose response of compound in the presence of fixed concentration of GLP-1(9-36)). Details: GLP-1R CRE-bla CHO-K1 cells, compound dose response with fixed concentration of GLP-1(9-36), read-out: EC20 GLP-1(9-36) PAM EC50.
T1 construct: host or cells: GLP-1R CRE-bla CHO-K1 cells
Assay type: cell-based
Method in brief: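 GLP-1R CRE-bla CHO-K1 cells treated 30 min at 37 °C with 12-point compound dose response plus fixed EC20 GLP-1(9-36), with IBMX, in HBSS/HEPES/0.1% BSA pH 7.4. Total cAMP measured by luminescent detection against standard curve; EC50 and Emax from non-linear regression.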

T1 sequence (P43220 24-463): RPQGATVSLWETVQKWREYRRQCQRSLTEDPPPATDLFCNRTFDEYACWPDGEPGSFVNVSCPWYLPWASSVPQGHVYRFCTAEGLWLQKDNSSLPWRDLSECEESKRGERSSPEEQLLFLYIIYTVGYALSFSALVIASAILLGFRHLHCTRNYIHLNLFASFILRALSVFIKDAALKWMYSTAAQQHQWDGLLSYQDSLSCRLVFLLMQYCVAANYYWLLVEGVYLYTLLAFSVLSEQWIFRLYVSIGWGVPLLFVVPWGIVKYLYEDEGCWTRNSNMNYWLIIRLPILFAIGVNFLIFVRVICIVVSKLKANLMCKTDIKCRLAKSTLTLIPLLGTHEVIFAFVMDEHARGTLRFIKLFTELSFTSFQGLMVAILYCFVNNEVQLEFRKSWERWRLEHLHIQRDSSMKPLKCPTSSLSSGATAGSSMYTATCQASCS
T1 sequence (P01275 100-127 partner limits assumed): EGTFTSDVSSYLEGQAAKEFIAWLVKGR

| EC50 | SMILES |
| --- | --- |
| 2.5 to 5 µM | CCCc1cnc(C2CCN(c3cnc(-c4ccc(C[C@H](NC(=O)c5ccc(C(C)(C)C)s5)C(=O)N5CC(C(=O)O)C5)cc4)nc3)CC2)nc1 [Compound 1499] |
| < 0.8 µM | Cc1ccccc1C1CCN(c2cnc(-c3ccc(C[C@H](NC(=O)c4ccc(C(C)(C)C)s4)C(=O)N4CC(C(=O)O)C4)cc3)nc2)CC1 [Compound 1475] |
| < 0.8 µM | CC[C@H]1CC[C@H](c2ccc(-c3cnc(-c4ccc(C[C@H](NC(=O)c5ccc(S(C)(=O)=O)cc5)C(=O)O)cc4)nc3)cc2)CC1 [Compound 1379] |
| < 0.8 µM | CCCc1ccc(-c2ccc(-c3cnc(-c4ccc(C[C@H](NC(=O)c5ccc(C(C)(C)C)s5)C(=O)N[C@H](C)C(=O)O)cc4)nc3)c(F)c2)cc1 [Compound 1320] |
| 2.5 to 5 µM | CCCCCCCOc1ccc(-c2nnc(-c3ccc(C[C@H](NC(=O)c4ccc(C(C)(C)C)cc4)C(=O)N4CC(C(=O)O)C4)cc3)s2)cc1 [Compound 1551] |
| 2.5 to 5 µM | C[C@@H](NC(=O)[C@H](Cc1ccc(-c2ncc(-c3cnc(-c4ccccc4)nc3)cn2)cc1)NC(=O)c1ccc(C(C)(C)C)s1)C(=O)O [Compound 1311] |
| < 0.8 µM | CC[C@H]1CC[C@H](c2ccc(-c3cnc(-c4ccc(C[C@H](NC(=O)c5cnn(C(C)(C)C)c5)C(=O)O)cc4)nc3)cc2)CC1 [Compound 1378] |
| < 0.8 µM | C[C@@H](NC(=O)[C@H](Cc1ccc(-c2ncc(-c3ccc(-c4ccc(C(F)(F)F)cc4)cc3)cn2)cc1)NC(=O)c1ccc(C(C)(C)C)s1)C(=O)O [Compound 1313] |

Same assay, conditions: dose response of compound in presence of fixed concentration of GLP-1(9-36), GLP-1R CRE-bla CHO-K1 cells, read-out: EC20 GLP-1(9-36) PAM EC50

| EC50 | SMILES |
| --- | --- |
| 0.8 to 2.5 µM | CCCCCCCOc1ccc(-c2cnc(-c3ccc(C[C@H](NC(=O)c4ccc(C(C)(C)C)cc4)C(=O)NC(C(=O)O)c4nc(C)oc4C)cc3)nc2)cc1 (stereo partly drawn) [Compound 488] |
| < 0.8 µM | Cc1ccc(-c2ccc(-c3cnc(-c4ccc(C[C@H](NC(=O)c5ccc(C(C)(C)C)s5)C(=O)N[C@H](C)C(=O)O)cc4)nc3)cc2)c(F)c1 [Compound 1148] |
| 5 to 10 µM | COc1ccc(-c2cnc(-c3ccc(C[C@H](NC(=O)c4ccc(C(C)(C)C)cc4)C(=O)N[C@H](C)C(=O)O)cc3)nc2)cc1 [Compound 800] |
| 0.8 to 2.5 µM | CC(C)(C)c1ccc(-c2cnc(-c3ccc(C[C@H](NC(=O)c4ccc(C(C)(C)C)s4)C(=O)N[C@H]4CCC[C@H]4C(=O)O)cc3)nc2)cc1 [Compound 382] |
| < 0.8 µM | C[C@@H](NC(=O)[C@H](Cc1ccc(-c2ncc(-c3ccc(C4CCC(F)(F)CC4)cc3)cn2)cc1)NC(=O)c1ccc(C(C)(C)C)s1)C(=O)O [Compound 1142] |
| < 0.8 µM | CCCCCCCOc1ccc(-c2cnc(-c3ccc(C[C@H](NC(=O)c4ccc(C(C)(C)C)s4)C(=O)N4CC(C(=O)O)CCC4C)cc3)nc2)cc1 (stereo partly drawn) [Compound 653] |
| < 0.8 µM | CC(C)(C)c1ccc(C(=O)N[C@@H](Cc2ccc(-c3ncc(-c4ccc([C@H]5CC[C@H](C(F)(F)F)CC5)cc4)cn3)cc2)C(=O)N2CC(C(=O)O)C2)s1 [Compound 1184] |
| < 0.8 µM | CCCCCCCOc1ccc(-c2cnc(-c3ccc(C[C@H](NC(=O)c4ccc(C(C)(C)C)s4)C(=O)N[C@@H](c4n[nH]c(=S)o4)[C@@H](C)O)cc3)nc2)cc1 [Compound 895] |
| 2.5 to 5 µM | COc1ccc(-c2cnc(-c3ccc(C[C@H](NC(=O)c4ccc(C(C)(C)C)s4)C(=O)N[C@H](C)C(=O)O)cc3)nc2)c(F)c1OC1CCCC1 [Compound 1019] |
| 2.5 to 5 µM | Cc1ccc(-c2ccc(-c3cnc(-c4ccc(C[C@H](NC(=O)c5ccc(C(C)(C)C)cc5)C(=O)N[C@H](C)C(=O)O)cc4)nc3)cc2)cc1 [Compound 727] |
| 0.8 to 2.5 µM | CCCCCCCOc1ccc(-c2cnc(-c3ccc(C[C@H](NC(=O)c4ccc(CC)s4)C(=O)N4CCC[C@H]4C(=O)O)cc3)nc2)cc1 [Compound 1072] |
| 2.5 to 5 µM | CCCCCCCOc1ccc(-c2cnc(-c3ccc(C[C@H](NC(=O)/C=C/c4ccc(OC)cc4)C(=O)N[C@H](C)C(=O)O)cc3)nc2)cc1 [Compound 1047] |
| 2.5 to 5 µM | CCCCCCCOc1ccc(-c2cnc(-c3ccc(CC(NC(=O)c4ccc(C(C)(C)C)s4)C(=O)N[C@@H](CCCNC(=N)N)C(=O)O)cc3)nc2)cc1 (stereo partly drawn) [Compound 425] |
| 5 to 10 µM | CCCCCCCOc1ccc(-c2cnc(-c3ccc(C[C@H](NC(=O)c4ccc(C(C)(C)C)s4)C(=O)N4CC[C@H](C(=O)Nc5nnn[nH]5)C4)cc3)nc2)cc1 [Compound 885] |
| 0.8 to 2.5 µM | CCCCCCCOc1ccc(-c2cnc(-c3ccc(C[C@H](NC(=O)c4ccc(C(C)(C)C)s4)C(=O)N4CCC(CCC(=O)O)C4)cc3)nc2)cc1 (stereo partly drawn) [Compound 991] |
| < 0.8 µM | CCCCCCCOc1ccc(-c2cnc(-c3ccc(C[C@H](NC(=O)c4cc(C)cs4)C(=O)O)cc3)nc2)cc1 [Compound 470] |
| 0.8 to 2.5 µM | CCCCCCCc1ccc(-c2cnc(-c3ccc(C[C@H](NC(=O)c4ccc(C(C)(C)C)cc4)C(=O)NCCC(=O)O)cc3)nc2)cc1 [Compound 679] |
| 0.8 to 2.5 µM | CCCCc1ccc(-c2ccc(-c3cnc(-c4ccc(C[C@H](NC(=O)c5ccc(C(C)(C)C)s5)C(=O)N[C@H](C)C(=O)O)cc4)nc3)cc2)cc1 [Compound 1135] |
| 5 to 10 µM | CCCCCCCOc1ccc(-c2cnc(-c3ccc(C[C@H](NC(=O)c4ccc(C(C)(C)C)s4)C(=O)N[C@H](C(=O)O)[C@@H](N)c4ccccc4)cc3)nc2)cc1 [Compound 883] |
| 2.5 to 5 µM | CCCCCCCOc1ccc(-c2cnc(-c3ccc(C[C@H](NC(=O)c4ccc(C(C)(C)C)cc4OCC)C(=O)N[C@H](C)C(=O)O)cc3)nc2)cc1 [Compound 836] |
| < 0.8 µM | CCCCCCCOc1ccc(-c2cnc(-c3ccc(C[C@H](NC(=O)c4ccc(C(C)(C)C)cc4)C(=O)NC(C(=O)O)c4ccc(OC)cc4)cc3)nc2)cc1 (stereo partly drawn) [Compound 543] |

| EC50 | SMILES |
| --- | --- |
| 0.8 to 2.5 µM | CCCCCCCOc1ccc(-c2cnc(-c3ccc(C[C@H](NC(=O)c4ccc(C(C)(C)C)cc4)C(=O)N4CCC4C(=O)O)cc3)nc2)cc1 (stereo partly drawn) [Compound 565] |
| 2.5 to 5 µM | CC(C)Oc1cc(-c2cnc(-c3ccc(C[C@H](NC(=O)c4ccc(C(C)(C)C)s4)C(=O)N[C@H](C)C(=O)O)cc3)nc2)cc(Cl)c1OC(C)C [Compound 1017] |
| < 0.8 µM | CCCCCCCOc1ccc(-c2cnc(-c3ccc(C[C@H](NC(=O)c4ccc(C(C)(C)C)s4)C(=O)N[C@@H](CC(=O)N(C)C)C(=O)O)cc3)nc2)cc1 [Compound 513] |
| 0.8 to 2.5 µM | CCCCCCCOc1ccc(-c2cnc(-c3ccc(C[C@H](NC(=O)c4ccc(C5(C)CC5)cc4)C(=O)N4CCC[C@H]4C(=O)O)cc3)nc2)cc1 [Compound 1083] |
| 5 to 10 µM | CCCCCCCOc1ccc(-c2cnc(-c3ccc(C[C@H](NC(=O)c4ccc(C(C)(C)C)s4)C(=O)NC[C@H]4CCCN4C)cc3)nc2)cc1 [Compound 973] |
| 0.8 to 2.5 µM | CCCCCCCOc1ccc(-c2cnc(-c3ccc(C[C@H](NC(=O)c4ccc(C(C)(C)C)s4)C(=O)N[C@H](CCN)C(=O)O)cc3)nc2)cc1 [Compound 411] |
| 2.5 to 5 µM | CCCCCCCOc1ccc(-c2cnc(-c3ccc(C[C@H](NC(=O)c4ccc(C(C)(C)C)cc4)C(=O)N4CC(C(=O)O)CC4C)cc3)nc2)cc1 (stereo partly drawn) [Compound 893] |
| 2.5 to 5 µM | CCCCCCCOc1ccc(-c2cnc(-c3ccc(C[C@H](NC(=O)c4ccc(C(C)(C)C)s4)C(=O)N4C[C@@H](F)C[C@@H]4C(=O)O)cc3)nc2)cc1 [Compound 871] |
| 5 to 10 µM | CC(C)(C)c1ccc(C(=O)N[C@@H](Cc2ccc(-c3ncc(N4CCC(C(C)(C)C)CC4)cn3)cc2)C(=O)NCCC(=O)O)cc1 [Compound 674] |
| 2.5 to 5 µM | CC(C)COc1ncc(-c2cnc(-c3ccc(C[C@H](NC(=O)c4ccc(C(C)(C)C)s4)C(=O)N[C@H](C)C(=O)O)cc3)nc2)cc1Cl [Compound 1038] |
| < 0.8 µM | CCCCCCCOc1ccc(-c2cnc(-c3ccc(C[C@H](NC(=O)c4ccc(C(C)(C)C)s4)C(=O)N4CC[C@H](C(=O)O)C4)cc3)nc2)nc1 [Compound 1065] |
| 5 to 10 µM | CCCCCCCOc1ccc(-c2cnc(-c3ccc(C[C@H](NC(=O)c4ccc(C(C)(C)C)s4)C(=O)NC[C@H]4CCNC4)cc3)nc2)cc1 [Compound 438] |
| 2.5 to 5 µM | CCCCCCCOc1ccc(-c2cnc(-c3ccc(C[C@H](NC(=O)c4ccc(CCCC)cc4)C(=O)N[C@H](C)C(=O)O)cc3)nc2)cc1 [Compound 820] |
| 2.5 to 5 µM | CC(C)(C)c1ccc(C(=O)N[C@@H](Cc2ccc(-c3ncc(-c4nc(CCc5ccccc5)no4)cn3)cc2)C(=O)NCCC(=O)O)cc1 [Compound 746] |
| < 0.8 µM | CCCCCCCOc1ccc(-c2cnc(-c3ccc(C[C@H](NC(=O)c4ccc(C(C)(C)C)s4)C(=O)NC(C(=O)O)C(O)C(C)C)cc3)nc2)cc1 (stereo partly drawn) [Compound 880] |
| 0.8 to 2.5 µM | CCCCCCCOc1ccc(-c2cnc(-c3ccc(C[C@H](NC(=O)c4ccc(CCC)cc4)C(=O)N4CC[C@H](C(=O)O)C4)cc3)nc2)cc1 [Compound 853] |
| 2.5 to 5 µM | CCCCCCOc1ccc(-c2cnc(-c3ccc(C[C@H](NC(=O)c4ccc(C(C)(C)C)cc4)C(=O)NCCC(=O)O)cc3)nc2)cc1 [Compound 711] |
| 0.8 to 2.5 µM | CCCCCCCOc1ccc(-c2cnc(-c3ccc(C[C@H](NC(=O)c4ccc(C(C)(C)C)s4)C(=O)N4CC(C(=O)NS(=O)(=O)CC(=O)O)C4)cc3)nc2)cc1 [Compound 649] |
| 0.8 to 2.5 µM | CCCCCCCOc1ccc(-c2cnc(-c3ccc(C[C@H](NC(=O)c4ccc(CC)cc4)C(=O)NC(C(=O)O)C(O)c4ccccc4)cc3)nc2)cc1 (stereo partly drawn) [Compound 947] |
| 5 to 10 µM | CCCCCCCOc1ccc(-c2cnc(-c3ccc(C[C@H](NC(=O)c4ccc(C(C)(C)C)cc4)C(=O)N4CCC[C@@H](C(=O)O)[C@H]4C)cc3)nc2)cc1 [Compound 583] |
| 0.8 to 2.5 µM | CCOc1cc(-c2cnc(-c3ccc(C[C@H](NC(=O)c4ccc(C(C)(C)C)s4)C(=O)N[C@H](C)C(=O)O)cc3)nc2)ccc1OC(F)(F)F [Compound 1004] |

| SMILES | EC50 |
| --- | --- |
| CCCCCCCOc1ccc(-c2cnc(-c3ccc(C[C@H](NC(=O)c4ccc(C(C)(C)C)s4)C(=O)N[C@@H](CC)C(=O)O)cc3)nc2)cc1 [Compound 401] | < 0.8 µM |

From patent publication US10034886B2, “GLP-1 receptor modulators” (Celgene International II SÀRL, priority 2014, dated 2018)
